“Also recorded” adds a separate entry of the source.
Experiments:
[1] = Cell proliferation in vitro; assay type: cell-based
[2] = tested on: breast cancer cells; assay: Self-renewal ability of breast cancer cells; assay type: cell-based
[3] = tested on: ABCG2; assay: Immunofluorescence staining of ABCG2 in MCF-7 cells; assay type: cell-based, human
[4] = General toxicity by total body weight of treated mice; assay type: in vivo; conditions: animal models of breast and colon cancer
Method: (§1) Nude mice (Jackson Laboratories, Bar Harbor, Me., USA) were injected with 4*106 cells of MDA-MB-468 and LOVO subcutaneously in the right flank, and tumor size was measured weekly using a caliper. When the tumor reached approximately 400 mm^3 […], the mice were divided into control treated groups, the treatment including administration of DHP-5 (50 mg/Kg) via intraperitoneal injection daily for 14 days. The general toxicity of the treatment was determined by measuring the total body weight of the treated and control mice. The breeding, care and sacrifice of the animals were in accordance with the protocols approved by the Animal Care and Use Committee of the King Faisal Specialist Hospital and Research Centre.

[5] = tested on: MCF-7 breast cancer cells; assay: Side population analysis of MCF-7 breast cancer cells (DyeCycle Violet staining); assay type: cell-based, human; conditions: DHP-5 50, 75 and 100 μM, Verapamil 200 μM
Method: (§2) For DCV staining, cells were pelleted and suspended in DMEM cell culture medium at a concentration of 1*10^6 cells/ml. DCV (Invitrogen Molecular Probes®, Eugene, Oreg.) was added at a final staining concentration of 10 μM, as this concentration gave optimal separation between SP and non SP cells. PI stained was used to exclude dead cells. Functionally, to gate only side population cells, Verapamil 200 μM or FTC 10 μg/ml was used. All analyses were performed on a FACS LSRII (BD Biosciences). Debris and cell clusters were excluded during side-scatter and forward-scatter analyses.

[6] = tested on: lovo colon cancer cells; assay: Side population inhibition on lovo colon cancer cells; assay type: cell-based
Method: The relationship of compound structure and compound activity of various Formula I compounds, i.e., 5-benzoyl-3,4-dihydropyrimidin-2(1H)-one/thione compounds, on inhibition of side population cancer stem cells was studied. The various 5-benzoyl-3,4-dihydropyrimidin-2(1H)-one/thione compounds and the corresponding inhibition activity are provided below in Table 1.
The newly synthesized compounds DHP (1-9) were evaluated for side population inhibition on lovo colon cancer cells (%) at 10 μM concentration. […] It was noted that most of the compounds which include a methoxy group at R1 were active. The methoxy group seems to help the molecule to align in protein pocket. Compounds with an oxygen atom at R2 were also active. It seems that the oxygen atom at position R2 also plays some important role in binding with protein pocket.
as §2, with “Debris and cell clusters were excluded during side-scatter and forward-scatter analyses.” left out

[7] = tested on: MDA-MB-468 (breast cancer xenograft); assay: Antitumor activity in mice, MDA-MB-468 breast cancer xenograft; assay type: in vivo, Nude mice; conditions: 50 mg/Kg intraperitoneal daily for 14 days
Method: as §1
(§3) Tumor growth of MDA-MB-468 (breast cancer xenograft) and LOVO (colon cancer xenograft) was recorded in untreated mice groups and DHP-5 (50 mg/kg) treated mice groups.

[8] = target: T1, ABCG2 (Homo sapiens, UniProt Q9UNQ0); assay: Mitoxantrone accumulation in MCF-7 cells; assay type: cell-based
T1 construct: endogenous in cells; host or cells: MCF-7 cells
T1 sequence (Q9UNQ0 1-655): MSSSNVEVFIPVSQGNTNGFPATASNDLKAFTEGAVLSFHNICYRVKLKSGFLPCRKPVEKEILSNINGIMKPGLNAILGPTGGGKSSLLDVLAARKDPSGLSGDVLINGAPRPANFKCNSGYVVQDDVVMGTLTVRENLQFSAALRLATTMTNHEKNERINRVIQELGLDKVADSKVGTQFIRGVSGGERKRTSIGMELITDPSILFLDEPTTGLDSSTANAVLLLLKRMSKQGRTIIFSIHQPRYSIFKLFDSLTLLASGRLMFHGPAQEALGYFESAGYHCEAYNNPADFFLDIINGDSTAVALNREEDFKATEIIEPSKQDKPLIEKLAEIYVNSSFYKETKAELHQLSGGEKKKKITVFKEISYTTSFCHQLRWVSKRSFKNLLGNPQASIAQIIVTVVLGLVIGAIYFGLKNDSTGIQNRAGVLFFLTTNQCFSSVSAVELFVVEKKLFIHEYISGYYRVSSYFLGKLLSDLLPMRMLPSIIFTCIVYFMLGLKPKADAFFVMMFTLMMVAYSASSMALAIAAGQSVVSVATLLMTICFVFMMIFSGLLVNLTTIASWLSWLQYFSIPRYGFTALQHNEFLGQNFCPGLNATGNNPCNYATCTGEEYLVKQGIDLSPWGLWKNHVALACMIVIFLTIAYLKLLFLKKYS

[9] = tested on: LOVO (colon cancer xenograft); assay: Antitumor activity in mice, LOVO colon cancer xenograft; assay type: in vivo, Nude mice; conditions: 50 mg/Kg intraperitoneal daily for 14 days
Method: as §1, §3

[10] = Apoptosis induction in vitro; assay type: cell-based
[11] = tested on: MCF-7 cells; assay: Flow cytometric DNA cell cycle analysis; assay type: cell-based, human; conditions: DHP-5 treated vs untreated
Method: 2×10^6 cells were fixed in 1 ml ethanol (70%) for 60 min. at room temperature. Harvested cells were resuspended in 1 ml Na citrate (50 mM) containing 250 μg RNase A and incubated at 50° C. for 60 min. Next, cells were resuspended in the same buffer containing 4 μg propidium iodine (PI) and incubated for 30 min. before being analyzed by flow cytometry (Becton Dickinson, San Jose, Calif., USA). The percentage of cells in various cell cycle phases was determined by using Cell Quest Pro software (Becton Dickinson).

[12] = tested on: tumor derived cells of LOVO xenograft; assay: Side population analysis of tumor derived cells of LOVO xenograft; assay type: in vivo, Nude mice; conditions: DHP-5 50 mg/kg for 14 days, Verapamil 200 μM
Method: as §2
A side population analysis of tumor derived cells of LOVO xenograft that were untreated (FIG. 4A), treated with side population inhibitor reference drug Verapamil 200 μM (FIG. 4B), and side population analysis of tumor cells derived from animals treated by DHP-5 50 mg/kg for 14 days.
as §1, with “The breeding, care and sacrifice of the animals were in accordance with the protocols approved by the Animal Care and Use Committee of the King Faisal Specialist Hospital and Research Centre.” left out

CCOc1ccc(C2NC(=O)NC=C2C(=O)c2cc(OC)c(OC)c(OC)c2)cc1 (stereo not shown) [DHP-5, 4-(4-ethoxyphenyl)-5-(3,4,5-trimethoxybenzoyl)-3,4-dihydropyrimidin-2(1H)-one]
cell proliferation [1]: blocked cell proliferation | self-renewal ability of breast cancer cells [2]: blocking self-renewal ability of breast cancer cells in a dose dependent manner | expression of ABCG2 [3]: decreased the expression of ABCG2 | general toxicity [4]: without any sign of general toxicity | inhibitory effect on side population cancer stem cells versus Verapamil [5]: more potent inhibitor of side population cells than reference drug Verapamil; also recorded: more potent inhibitory effect of DHP-5 on side population cancer stem cells than reference drug Verapamil | side population inhibition, activity in words ([6]; 10 μM): moderately active | inhibition at 10 µM ([6]; Homo sapiens): 58.8% | tumor growth, MDA-MB-468 breast cancer xenograft [7]: superior efficacy compared to reference drug Doxorubicin; also recorded: shrinking of tumor | Mitoxantrone accumulation (selective ABCG2 substrate) [8]: increase in Mitoxantrone accumulation | tumor growth, LOVO colon cancer xenograft [9]: superior efficacy compared to reference drug Doxorubicin; also recorded: shrinking of tumor | apoptosis [10]: induced apoptosis | cell cycle phase distribution [11]: increased accumulation of treated cells in G2+M mitosis phase | inhibitory effect on side population cancer stem cells of xenograft tumor cells versus Verapamil [12]: more potent inhibitory effect of DHP-5 on side population cancer stem cells than reference drug Verapamil
